Measured values reported in patent US11084800B2 (Achillion Pharmaceuticals, Inc., priority 2017, dated 2021).

Target: Human Factor D (Homo sapiens (Human), UniProt P00746)
Test: Human Factor D Assay
Type: biochemical
Details: Table 6; Factor D 80 nM, substrate Z-L-Lys-SBz; read-out: IC50
Summary of the method: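 Thioester substrate Z-L-Lys-SBz (100 μM) with Ellman's reagent DTNB (100 μM) reports activity of 80 nM human serum-derived enzyme, kinetically at 405 nm over 30 min. Compound preincubated 5 min, room temperature, pH 7.5 Tris/1 M NaCl; IC50 by nonlinear fit of rates.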

Human Factor D, sequence (P00746 26-253): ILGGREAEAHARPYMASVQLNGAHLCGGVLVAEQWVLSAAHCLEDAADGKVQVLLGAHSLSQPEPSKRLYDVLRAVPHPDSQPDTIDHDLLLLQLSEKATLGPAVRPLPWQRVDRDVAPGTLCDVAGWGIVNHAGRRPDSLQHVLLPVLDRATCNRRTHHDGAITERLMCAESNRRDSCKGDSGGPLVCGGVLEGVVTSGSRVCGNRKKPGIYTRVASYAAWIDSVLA

`CC(=O)c1nn(CC(=O)N2[C@H](C(=O)Nc3nc(Br)ccc3C)C[C@@]3(COCCN(C)C)C[C@@H]23)c2ccc(-c3cnc(C)nc3)cc12` [Compound 157] and `CC(=O)c1nn(CC(=O)N2[C@H](C(=O)Nc3nc(Br)ccc3C)C[C@@]3(c4cnco4)C[C@@H]23)c2ccc(-c3cnc(C)nc3)cc12` [Compound 197, (1R,3S,5S)-2-(2-(3-Acetyl-5-(2-methylpyrimidin-5-yl)-1H-indazol-1-yl)acetyl)-N-(6-bromo-3-methylpyridin-2-yl)-5-(oxazol-5-yl)-2-azabicyclo[3.1.0]hexane-3-carboxamide] cannot be ordered by IC50: less than 1000 nM for the first, less than 1000 nM for the second.

`CC(=O)c1nn(CC(=O)N2C[C@H]3C[C@H]3[C@H]2C(=O)Nc2nc(Br)c(F)cc2C)c2cnc(-c3cnc(C)nc3)cc12` [Compound 172, (1R,2S,5S)-3-(2-(3-Acetyl-5-(2-methylpyrimidin-5-yl)-1H-pyrazolo[3,4-c]pyridin-1-yl)acetyl)-N-(6-bromo-5-fluoro-3-methylpyridin-2-yl)-3-azabicyclo[3.1.0]hexane-2-carboxamide] and `CC(=O)c1nn(CC(=O)N2C[C@H]3C[C@H]3[C@H]2C(=O)Nc2nc(Br)ccc2C)c2ncc(-c3cnc(C)nc3)cc12` [Compound 183, (1R,2S,5S)-3-(2-(3-Acetyl-5-(2-methylpyrimidin-5-yl)-1H-pyrazolo[3,4-b]pyridin-1-yl)acetyl)-N-(6-bromo-3-methylpyridin-2-yl)-3-azabicyclo[3.1.0]hexane-2-carboxamide] cannot be ordered by IC50: less than 1000 nM for the first, less than 1000 nM for the second.

`CC(=O)c1nn(CC(=O)N2[C@H](C(=O)Nc3nc(Br)ccc3C)C[C@@]3(C(N)=O)C[C@@H]23)c2c(C)cc(-c3cnc(C)nc3)cc12` [Compound 173, (1R,3S,5S)-2-(2-(3-acetyl-7-methyl-5-(2-methylpyrimidin-5-yl)-1H-indazol-1-yl)acetyl)-N3-(6-bromo-3-methylpyridin-2-yl)-2-azabicyclo[3 .1.0]hexane-3,5-dicarboxamide] and `CC(=O)c1nn(CC(=O)N2[C@H](C(=O)Nc3nc(Br)ccc3C)C[C@@]3(C#N)C[C@@H]23)c2c(C)cc(-c3cnc(C)nc3)cc12` [Compound 174, (1R,3S,5S)-2-(2-(3-acetyl-7-methyl-5-(2-methylpyrimidin-5-yl)-1H-indazol-1-yl)acetyl)-N-(6-bromo-3-methylpyridin-2-yl)-5-cyano-2-azabicyclo[3.1.0]hexane-3-carboxamide] cannot be ordered by IC50: greater than 10000 nM for the first, greater than 10000 nM for the second.

`CC(=O)c1nn(CC(=O)N2C[C@@H](C(F)(F)F)C[C@H]2C(=O)Nc2nc(Br)ccc2C)c2c(C)cc(-c3cnc(C)nc3)cc12` [Compound 175] and `CC(=O)c1nn(CC(=O)N2[C@H](C(=O)Nc3nc(Br)ccc3C)C[C@@]3(CN(CCF)CCF)C[C@@H]23)c2c(C)cc(-c3cnc(C)nc3)cc12` [Compound 176] cannot be ordered by IC50: less than 1000 nM for the first, less than 1000 nM for the second.

`CC(=O)c1nn(CC(=O)N2[C@H](C(=O)Nc3nc(Br)ccc3CN3CC(F)(F)C3)C[C@@]3(C)C[C@@H]23)c2ccc(-c3cnc(C)nc3)cc12` [Compound 177, (1R,3S,5R)-2-(2-(3-Acetyl-5-(2-methylpyrimidin-5-yl)-1H-indazol-1-yl)acetyl)-N-(6-bromo-3-((3,3-difluoroazetidin-1-yl)methyl)pyridin-2-yl)-5-methyl-2-azabicyclo[3.1.0]hexane-3-carboxamide] and `CC(=O)c1nn(CC(=O)N2[C@H](C(=O)Nc3nc(Br)cc(C)c3C(F)F)C[C@@]3(C)C[C@@H]23)c2ccc(-c3cnc(C)nc3)cc12` [Compound 187, (1R,3S,5R)-2-(2-(3-Acetyl-5-(2-methylpyrimidin-5-yl)-1H-indazol-1-yl)acetyl)-N-(6-bromo-3-(difluoromethyl)-4-methylpyridin-2-yl)-5-methyl-2-azabicyclo[3.1.0]hexane-3-carboxamide] cannot be ordered by IC50: less than 1000 nM for the first, less than 1000 nM for the second.

`CC(=O)c1nn(CC(=O)N2[C@H](C(=O)Nc3nc(Br)c(F)cc3C)C[C@@]3(C)C[C@@H]23)c2ccc(-c3cnc(C)nc3)cc12` [Compound 178, (1R,3S,5R)-2-(2-(3-Acetyl-5-(2-methylpyrimidin-5-yl)-1H-indazol-1-yl)acetyl)-N-(6-bromo-5-fluoro-3-methylpyridin-2-yl)-5-methyl-2-azabicyclo[3.1.0]hexane-3-carboxamide] and `CC(=O)c1nn(CC(=O)N2[C@H](C(=O)Nc3nc(Br)c(F)cc3C)C[C@@]3(C)C[C@@H]23)c2ncc(-c3cnc(C)nc3)cc12` [Compound 182, (1R,3S,5R)-2-(2-(3-Acetyl-5-(2-methylpyrimidin-5-yl)-1H-pyrazolo[3,4-b]pyridin-1-yl)acetyl)-N-(6-bromo-5-fluoro-3-methylpyridin-2-yl)-5-methyl-2-azabicyclo[3.1.0]hexane-3-carboxamide] cannot be ordered by IC50: less than 1000 nM for the first, less than 1000 nM for the second.

First: CC(=O)c1nn(CC(=O)N2[C@H](C(=O)Nc3nc(Br)ccc3C)C[C@@]3(C)C[C@@H]23)c2ccc(-c3cnc4cc(C)nn4c3)cc12 [Compound 180, (1R,3S,5R)-2-(2-(3-Acetyl-5-(2-methylpyrazolo[1,5-a]pyrimidin-6-yl)-1H-indazol-1-yl)acetyl)-N-(6-bromo-3-methylpyridin-2-yl)-5-methyl-2-azabicyclo[3.1.0]hexane-3-carboxamide]
Second: CC(=O)c1nn(CC(=O)N2[C@H](C(=O)Nc3nc(Br)ccc3C)C[C@@]3(C)C[C@@H]23)c2ccc(-c3cnc(C)nc3)nc12 [Compound 184, (1R,3S,5R)-2-(2-(3-Acetyl-5-(2-methylpyrimidin-5-yl)-1H-pyrazolo[4,3-b]pyridin-1-yl)acetyl)-N-(6-bromo-3-methylpyridin-2-yl)-5-methyl-2-azabicyclo[3.1.0]hexane-3-carboxamide]
The IC50 of the first is lower: less than 1000 nM for the first, 1000 to 10000 nM for the second.

First: CC(=O)c1nn(CC(=O)N2[C@H](C(=O)Nc3nc(Br)c(F)cc3C)C[C@@]3(C)C[C@@H]23)c2ccc(-c3cnc(C)nc3)nc12 [Compound 185, (1R,3S,5R)-2-(2-(3-Acetyl-5-(2-methylpyrimidin-5-yl)-1H-pyrazolo[4,3-b]pyridin-1-yl)acetyl)-N-(6-bromo-5-fluoro-3-methylpyridin-2-yl)-5-methyl-2-azabicyclo[3.1.0]hexane-3-carboxamide]
Second: CC(=O)c1nn(CC(=O)N2[C@H](C(=O)Nc3nc(Br)c(F)cc3C)C[C@@]3(C)C[C@@H]23)c2cnc(-c3cnc(N)nc3)cc12 [Compound 195, (1R,3S,5R)-2-(2-(3-Acetyl-5-(2-aminopyrimidin-5-yl)-1H-pyrazolo[3,4-c]pyridin-1-yl)acetyl)-N-(6-bromo-5-fluoro-3-methylpyridin-2-yl)-5-methyl-2-azabicyclo[3.1.0]hexane-3-carboxamide]
The IC50 of the first is higher: 1000 to 10000 nM for the first, less than 1000 nM for the second. The second is the more potent here.

`C=CCCS(=O)(=O)N(C)C[C@@]12C[C@@H](C(=O)Nc3nc(Br)ccc3C=C)N(C(=O)Cn3nc(C(C)=O)c4cc(-c5cnc(C)nc5)ccc43)[C@@H]1C2` [Compound 188, (1R,3S,5R)-2-(2-(3-Acetyl-5-(2-methylpyrimidin-5-yl)-1H-indazol-1-yl)acetyl)-N-(6-bromo-3-vinylpyridin-2-yl)-5-((N-methylbut-3-en-1-ylsulfonamido)methyl)-2-azabicyclo[3.1.0]hexane-3-carboxamide] and `CC(=O)c1nn(CC(=O)N2[C@H](C(=O)Nc3nc(OC(F)(F)F)ccc3C)C[C@@]3(C)C[C@@H]23)c2ccc(-c3cnc(C)nc3)cc12` [Compound 196, (1R,3S,5R)-2-(2-(3-Acetyl-5-(2-methylpyrimidin-5-yl)-1H-indazol-1-yl)acetyl)-5-methyl-N-(3-methyl-6-(trifluoromethoxy)pyridin-2-yl)-2-azabicyclo[3.1.0]hexane-3-carboxamide] cannot be ordered by IC50: less than 1000 nM for the first, less than 1000 nM for the second.

`CC(=O)c1nn(CC(=O)N2[C@H](C(=O)Nc3nc(Br)ccc3CN3CCOCC3)C[C@@]3(C)C[C@@H]23)c2cnc(-c3cnc(C)nc3)cc12` [Compound 192, (1R,3S,5R)-2-(2-(3-Acetyl-5-(2-methylpyrimidin-5-yl)-1H-pyrazolo[3,4-c]pyridin-1-yl)acetyl)-N-(6-bromo-3-(morpholinomethyl)pyridin-2-yl)-5-methyl-2-azabicyclo[3.1.0]hexane-3-carboxamide] and `CC(=O)c1nn(CC(=O)N2[C@H](C(=O)Nc3nc(Br)ccc3C)C[C@@]3(C)C[C@@H]23)c2cnc(-c3cnc(N)nc3)cc12` [Compound 194, (1R,3S,5R)-2-(2-(3-Acetyl-5-(2-aminopyrimidin-5-yl)-1H-pyrazolo[3,4-c]pyridin-1-yl)acetyl)-N-(6-bromo-3-methylpyridin-2-yl)-5-methyl-2-azabicyclo[3.1.0]hexane-3-carboxamide] cannot be ordered by IC50: less than 1000 nM for the first, less than 1000 nM for the second.

`COc1ncc(-c2cc3c(C(C)=O)nn(CC(=O)N4[C@H](C(=O)Nc5nc(Br)ccc5C)C[C@@]5(C)C[C@@H]45)c3cn2)cn1` [Compound 193, (1R,3S,5R)-2-(2-(3-Acetyl-5-(2-methoxypyrimidin-5-yl)-1H-pyrazolo[3,4-c]pyridin-1-yl)acetyl)-N-(6-bromo-3-methylpyridin-2-yl)-5-methyl-2-azabicyclo[3.1.0]hexane-3-carboxamide] and `COc1ncc(-c2cc3c(C(C)=O)nn(CC(=O)N4[C@H](C(=O)Nc5nc(Br)c(F)cc5C)C[C@@]5(C)C[C@@H]45)c3cn2)cn1` [Compound 198, (1R,3S,5R)-2-(2-(3-Acetyl-5-(2-methoxypyrimidin-5-yl)-1H-pyrazolo[3,4-c]pyridin-1-yl)acetyl)-N-(6-bromo-5-fluoro-3-methylpyridin-2-yl)-5-methyl-2-azabicyclo[3.1.0]hexane-3-carboxamide] cannot be ordered by IC50: less than 1000 nM for the first, less than 1000 nM for the second.

`CC(=O)c1nn(CC(=O)N2[C@H](C(=O)Nc3nc(Br)ccc3C)C[C@@]3(C)C[C@@H]23)c2cnc(-c3cnc(C)[n+]([O-])c3)cc12` [Compound 200, 5-(3-acetyl-1-(2-((1R,3S,5R)-3-((6-bromo-3-methylpyridin-2-yl)carbamoyl)-5-methyl-2-azabicyclo[3.1.0]hexan-2-yl)-2-oxoethyl)-1H-pyrazolo[3,4-c]pyridin-5-yl)-2-methylpyrimidine 1-oxide] was tested, and the IC50 was less than 1000 nM.
